“Also recorded” adds a separate entry of the source.
Experiment: Single i.v. dose toxicity with 14-day observation: clinical signs and mortality
Format: in vivo, Sprague-Dawley rats
Conditions: nicotine 0.75 mg/kg single i.v.
Protocol: Body weight and food consumption was measured daily for 14 days. On day 15, urine was collected on all surviving animals. The animals were euthanized and bled via cardiac puncture, and blood was collected for analysis. Tissues were collected, weighed, evaluated for gross abnormalities, and stored in 10% neutral-buffered formalin.
Four aliquots of each dose formulation were collected and stored at −80° C.
The animals were weighed prior to dosing and received a single i.v. dose via the lateral tail vein of either test compound or vehicle at a volume of 5 mL/kg.

SMILES: CN1CCCC1c1cccnc1.O=C(O)C(O)C(O)C(=O)O (single isomer, unassigned; (-)) [Nicotine, (−) Nicotine hydrogen tartrate, reference compound]
- mortality (5 males and 5 females, tartrate): One male and two females died post dose; also recorded: one male animal and 2 females died following test compound administration
- clinical signs after dosing (male and female rats): experienced tremors upon compound administration but returned to normal within 15-20 minutes post dose

— patent US20120196899A1, “METHODS AND PRODUCTS FOR TREATING INFLAMMATION” (Rock Creek Pharmaceuticals, Inc., priority 2010, published 2012)
